Experimental data as given in US4721711A, “Pyridazine derivatives active on the central nervous system, and medicaments in which they are present” (Sanofi, priority 1983, dated 1988).

How the values were obtained:
[1] = biological target: GABA post-synaptic receptor; test: displacement of tritiated GABA from its post-synaptic receptor (synaptic membranes, Enna and Snyder); assay type: binding; conditions: in vitro, tritiated GABA 3.6 nM, read-out: Median effective concentration (EC50) for displacement of tritiated GABA
Protocol: The products according to the invention were studied for their activity on the central nervous system. Activity on the displacement of .UPSILON.-aminobutyric acid from its post-synaptic receptor. Method: The neurochemical activity of the derivatives of the present invention on the GABA-ergic system was evaluated by measuring the displacement of .UPSILON.-aminobutyric acid (GABA) from its post-synaptic receptor. The study was carried out by the method of ENNA and […] (Brain Res. 100, 81-97, 1975). The displacement experiment was carried out in vitro in the presence of a suspension of synaptic membranes and tritiated GABA at a final concentration of 3.6 nM.

[2] = system: spontaneous motility of mice; test: spontaneous motility of mice (activity test); assay type: in vivo; conditions: oral, 45 minutes after administration, recorded 10 minutes
Protocol: 1. Activity on the motility of mice
The tranquillising-sedative activity of the derivatives of the present invention was evaluated by measuring the spontaneous motility of mice by means of the activity test (J. R. BOISSIER and P. SIMON, Arch. Int. Pharmacodyn. 1965, 158, 212-221).
The equipment consisted of activity cages of the Apelab type (length=26 cm; width=21.5 cm; height=10 cm), through which two rays of light pass, acting on a photoelectric cell.
The animals were placed individually in the cages 45 minutes after oral administration of the product: each crossing of a light beam was counted by an individual counter. The scores corresponding to the movements of the animals were recorded for 10 minutes. The batches consisted of 12 mice per dose.

[3] = system: reserpine-induced ptosis in mice; test: antagonism of reserpine-induced ptosis in mice; assay type: in vivo; conditions: Mus musculus, ip; intraperitoneal, with reserpine 2 mg/kg i.v., 1 hour, probit; (26-32)* on the line below
Protocol: 2. Effect on the antagonism of reserpine-induced ptosis
The antidepressive activity of the compounds was evaluated in the test for the antagonism of reserpine-induced ptosis in mice.
This study was carried out on batches of 10 female mice weighing 20±1 g. The products were administered intraperitoneally at the same time as the reserpine (2 mg/kg, administered intravenously). The mice were observed individually 1 hour after the administrations. […] The median effective dose for antagonism (ED50) was evaluated by the probit method.

[4] = system: rotational behaviour of mice; test: rotational behaviour of mice after unilateral lesion of the nigro-striated passage by 6-(OH)-dopamine; assay type: in vivo, CD1 Charles River female mice; conditions: intraperitoneal, 1 hour after administration, over 2 minutes, **p 0.01
Protocol: 3. Effect on the rotational behaviour of mice after unilateral lesion of the nigro-striated passage by 6-(OH)-dopamine
The influence of the derivatives of the present invention on the central dopaminergic system was evaluated on the rotational behaviour of mice after unilateral lesion of the nigro-striated passage by 6-(OH)-dopamine. (P. PROTAIS and J. COSTENTIN, J. Pharmacol. 7(2), 251-255, 1976).
CD1 Charles River female mice, weighing 20 to 24 g, have previously undergone unilateral lesion of the striatum by the stereotaxic injection of 6-(OH)-dopamine at a dose of 8 μg per animal. One week after this operation, the product to be studied was administered intraperitoneally to grouos of 7 mice. The number of rotations was evaluated over 2 minutes, 1 hour after the administration of the product. The rotations on the same side as the lesion were counted as positive and those on the opposite side were counted as negative. The algebraic sum of the rotations for a group treated animals was compared with that for the group of control animals which had only received the vehicle (physiological serum).

| Compound | EC50 [1] | also measured |
| --- | --- | --- |
| Cc1cc(-c2cccc3ccccc23)n[n+](CCCC(=O)O)c1N [Example 24, 3-Amino-2-(3-carboxypropyl)-4-methyl-6-(naphth-1-yl)-2-pyridazinium chloride] | 2.9 µM |  |
| COc1ccc(-c2cc(C)c(N)[n+](CCCC(=O)O)n2)cc1 [Example 27] | 5 µM |  |
| Cc1cc(-c2ccccc2Cl)n[n+](CCCC(=O)O)c1N [Example 29] | 3.2 µM |  |
| Nc1ccc(-c2ccc(Cl)cc2Cl)n[n+]1CCCC(=O)O [Example 30] | 7 µM |  |
| Cc1cc(-c2ccccc2)n[n+](CCCC(=O)O)c1N [Example 37] | 2.8 µM |  |
| Cc1cc(-c2ccccc2)n[n+](CCC(=O)O)c1N [Example 39] | 10 µM |  |
| Cc1cc(-c2ccccc2)n[n+](CCCCC(=O)O)c1N [Example 40] |  | Motility of the mice, effect ([2]; 50 mg/kg, *p 0.05): -33%; Motility of the mice, effect ([2]; 100 mg/kg, **p 0.01): -48%; ED50 [3]: 29 mg/kg; Rotational behaviour of mice, effect ([4]; 0,5 mg/kg): -50%; Rotational behaviour of mice, effect ([4]; 2 mg/kg): -62% |
| Nc1ccc(C2CCCCC2)n[n+]1CCCC(=O)O [Example 41] | 10.5 µM |  |
| Cc1cc(-c2ccc(O)cc2)n[n+](CCCC(=O)O)c1N [Example 47, 3-Amino-2-(3-carboxypropyl)-4-methyl-6-(4-hydroxyphenyl)-2-pyridazinium bromide] | 3 µM |  |

Now from value to molecule, other results behind:

| EC50 [1] | Compound | also measured |
| --- | --- | --- |
| 1.25 µM | Nc1ccc(-c2ccc(Cl)cc2)n[n+]1CCCC(=O)O [Example 31] |  |
| 0.7 µM | Cc1cc(-c2cccc(Cl)c2)n[n+](CCCC(=O)O)c1N [Example 33] |  |
| 0.71 µM | Cc1ccc(-c2cc(C)c(N)[n+](CCCC(=O)O)n2)cc1 [Example 34] |  |
| 1.34 µM | Nc1ccc(-c2ccccc2)n[n+]1CCCC(=O)O [Example 38] |  |
| 2.4 µM | Nc1ccc(-c2ccsc2)n[n+]1CCCC(=O)O [Example 42] |  |
| 0.83 µM | Nc1ccc(-c2cccs2)n[n+]1CCCC(=O)O [Example 43] |  |
